Test results published in the supplement of paper PMC10307832.

Legend:
Experiment in all cases: relative viability (nuclei count vs DMSO), 5 days (fraction); higher = more cells survive
Daporinad + Alpelisib = compound: O=C(/C=C/c1cccnc1)NCCCCC1CCN(C(=O)c2ccccc2)CC1 [Daporinad] + Cc1nc(NC(=O)N2CCC[C@H]2C(N)=O)sc1-c1ccnc(C(C)(C)C(F)(F)F)c1 [Alpelisib] (partner 2 µM)
How it was run: (§1)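 Lung cancer cell lines in 1536-well plates were dosed by pin tool the day after seeding, either with one drug alone or with a fixed anchor-drug dose plus five library-drug doses (not always all listed) in √10 steps. After 5 days, cells were fixed and their nuclei stained in one step (final 0.05% Triton X-100, 1% formaldehyde, 1 ug/ml Hoechst), then counted on 4× images. Relative viability is the nuclei count in treated wells divided by that in vehicle wells. Values are medians of duplicate plates.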

R406 + Palbociclib = compound: COc1cc(Nc2ncc(F)c(Nc3ccc4c(n3)NC(=O)C(C)(C)O4)n2)cc(OC)c1OC [R406] + CC(=O)c1c(C)c2cnc(Nc3ccc(N4CCNCC4)cn3)nc2n(C2CCCC2)c1=O [Palbociclib] (partner 0.5 µM)
How it was run: as §1

Daporinad + Decitabine = compound: O=C(/C=C/c1cccnc1)NCCCCC1CCN(C(=O)c2ccccc2)CC1 [Daporinad] + Nc1ncn([C@H]2C[C@H](O)[C@@H](CO)O2)c(=O)n1 [Decitabine] (partner 2 µM)
How it was run: as §1

R406 + Pemetrexed = compound: COc1cc(Nc2ncc(F)c(Nc3ccc4c(n3)NC(=O)C(C)(C)O4)n2)cc(OC)c1OC [R406] + Nc1nc2[nH]cc(CCc3ccc(C(=O)N[C@@H](CCC(=O)O)C(=O)O)cc3)c2c(=O)[nH]1 [Pemetrexed] (partner 0.2 µM)
How it was run: as §1

Row | Cell Line | relative viability (Daporinad + Alpelisib; first compound 0.0005 µM) | relative viability (Daporinad + Alpelisib; first compound 0.001581 µM) | relative viability (Daporinad + Alpelisib; first compound 0.005 µM) | relative viability (Daporinad + Alpelisib; first compound 0.01581 µM) | relative viability (R406 + Palbociclib; first compound 0.08 µM) | relative viability (R406 + Palbociclib; first compound 0.253 µM) | relative viability (R406 + Palbociclib; first compound 0.8 µM) | relative viability (R406 + Palbociclib; first compound 2.53 µM) | relative viability (R406 + Palbociclib; first compound 8 µM) | relative viability (Daporinad + Decitabine; first compound 0.0005 µM) | relative viability (Daporinad + Decitabine; first compound 0.001581 µM) | relative viability (Daporinad + Decitabine; first compound 0.005 µM) | relative viability (Daporinad + Decitabine; first compound 0.01581 µM) | relative viability (R406 + Pemetrexed; first compound 0.08 µM) | relative viability (R406 + Pemetrexed; first compound 0.253 µM) | relative viability (R406 + Pemetrexed; first compound 0.8 µM) | relative viability (R406 + Pemetrexed; first compound 2.53 µM) | relative viability (R406 + Pemetrexed; first compound 8 µM)
1 | IA-LM | 0.865 | 0.983 | 0.967 | 0.58 | – | – | – | – | – | – | – | – | – | – | – | – | – | –
2 | NCI-H322M | 0.757 | 0.945 | 0.85 | 0.769 | 0.463 | 0.452 | 0.468 | 0.456 | 0.354 | 0.659 | 0.749 | 0.683 | 0.664 | 0.532 | 0.596 | 0.63 | 0.466 | 0.396
3 | NCI-H3122 | 0.659 | 0.964 | 0.78 | 0.708 | 0.18 | 0.184 | 0.178 | 0.237 | 0.238 | 0.308 | 0.417 | 0.392 | 0.321 | 0.198 | 0.202 | 0.189 | 0.194 | 0.17
4 | NCI-H441 | – | 0.603 | 0.754 | 0.717 | 0.214 | 0.191 | 0.204 | 0.137 | 0.118 | 0.249 | 0.204 | 0.281 | 0.237 | 0.219 | 0.261 | 0.263 | 0.257 | 0.234
5 | COR-L23 | 0.891 | 1.01 | 0.691 | 0.183 | 0.224 | 0.346 | 0.342 | 0.166 | 0.157 | 0.43 | 0.471 | 0.437 | 0.227 | 0.2 | 0.182 | 0.191 | 0.183 | 0.191
6 | NCI-H2087 | 1.07 | 1.36 | 1.14 | 0.928 | 0.231 | 0.26 | 0.26 | 0.23 | 0.243 | 0.264 | 0.317 | 0.329 | 0.277 | 0.712 | 0.733 | 0.683 | 0.746 | 0.679
7 | LC-2-ad | 0.858 | 0.983 | 0.938 | 0.837 | 0.414 | 0.571 | 0.501 | 0.408 | 0.277 | 0.769 | 0.882 | 0.743 | 0.838 | 0.281 | 0.322 | 0.238 | 0.238 | 0.216
8 | NCI-H1915 | 1.04 | 1.09 | 1.14 | 1.11 | 0.536 | 0.567 | 0.529 | 0.488 | 0.521 | 0.25 | 0.283 | 0.271 | 0.257 | 0.498 | 0.475 | 0.497 | 0.439 | 0.36
9 | NCI-H2023 | 0.656 | 0.636 | 0.689 | 0.651 | 0.359 | 0.355 | 0.359 | 0.174 | 0.106 | 0.208 | 0.247 | 0.247 | 0.232 | 0.216 | 0.223 | 0.199 | 0.19 | 0.124
10 | COR-L 105 | 1.14 | 1.02 | 1.12 | 1.06 | 0.374 | 0.386 | 0.39 | 0.316 | 0.33 | 0.692 | 0.601 | 0.612 | 0.6 | 1.29 | 1.22 | 1.12 | 1.24 | 0.841
11 | SK-LU-1 | 0.933 | 1.22 | 1.47 | 1.06 | 0.392 | 0.423 | 0.367 | 0.258 | 0.191 | 0.656 | 0.683 | 0.671 | 0.692 | 0.952 | 1.06 | 1.1 | 0.528 | 0.187
12 | LXF-289 | 0.977 | 1.09 | 1.04 | 1.15 | 0.589 | 0.621 | 0.623 | 0.596 | 0.596 | 0.4 | 0.426 | 0.397 | 0.332 | 0.874 | 0.912 | 0.908 | 0.887 | 0.725
13 | NCI-H596 | 0.539 | 0.551 | 0.617 | 0.372 | – | – | – | – | – | 0.982 | 1 | 0.912 | 0.636 | 0.527 | 0.554 | 0.428 | 0.392 | 0.324
14 | ChaGo-K-1 | – | – | – | – | 0.768 | 0.98 | 1.02 | 0.928 | 0.706 | 0.534 | 0.532 | 0.355 | 0.246 | 0.25 | 0.25 | 0.248 | 0.253 | 0.233
15 | NCI-H522 | – | – | – | – | 1.11 | 0.916 | 0.969 | 0.899 | 0.719 | 0.626 | 0.689 | 0.634 | 0.628 | 0.832 | 1.04 | 1.09 | 0.937 | 0.747
16 | NCI-H1299 | 1.15 | 1.06 | 1.04 | 1.1 | – | – | – | – | – | – | – | – | – | – | – | – | – | –
17 | NCI-H1650 | – | – | – | – | 0.337 | 0.345 | 0.396 | 0.117 | 0.0985 | 0.402 | 0.396 | 0.458 | 0.327 | 0.355 | 0.408 | 0.37 | 0.291 | 0.358
18 | SW 900 | – | – | – | – | 0.471 | 0.559 | 0.518 | 0.617 | 0.096 | 0.438 | – | 0.403 | 0.374 | 0.486 | 0.486 | 0.532 | 0.129 | 0.0856
19 | A549 | 0.764 | 0.804 | 0.879 | 0.572 | – | – | – | – | – | 0.227 | 0.252 | 0.234 | 0.161 | – | – | – | – | –
20 | NCI-H727 | 0.622 | 0.479 | 0.619 | 0.497 | 0.621 | 0.702 | 0.752 | 0.652 | 0.609 | 0.822 | 0.903 | 1 | 0.67 | – | – | – | – | –
21 | NCI-H1563 | 0.956 | 0.923 | 0.723 | 0.914 | – | – | – | – | – | – | – | – | – | 0.707 | 0.929 | 0.794 | 0.659 | 0.444
22 | ABC-1 | 1.21 | 1.18 | 0.969 | 0.989 | 0.777 | 0.784 | 0.48 | 0.653 | 0.492 | 0.807 | 1.33 | 0.987 | 0.911 | – | – | – | – | –
